Test results as given in ChEMBL document CHEMBL5465560, “Selectivity Literature for EUbOPEN Chemogenomic Library” (2024).
Values belong to the molecule of their own block, whether it stands above or below them.

Assays:
[1] = biological target: T1, Non-receptor tyrosine-protein kinase TNK1 (Homo sapiens) (UniProt Q13470); experiment: Selectivity interaction (KinomeScan (DiscoverX)) EUB0000655a TNK1; conditions: at 10 µM
T1 sequence (whole entry): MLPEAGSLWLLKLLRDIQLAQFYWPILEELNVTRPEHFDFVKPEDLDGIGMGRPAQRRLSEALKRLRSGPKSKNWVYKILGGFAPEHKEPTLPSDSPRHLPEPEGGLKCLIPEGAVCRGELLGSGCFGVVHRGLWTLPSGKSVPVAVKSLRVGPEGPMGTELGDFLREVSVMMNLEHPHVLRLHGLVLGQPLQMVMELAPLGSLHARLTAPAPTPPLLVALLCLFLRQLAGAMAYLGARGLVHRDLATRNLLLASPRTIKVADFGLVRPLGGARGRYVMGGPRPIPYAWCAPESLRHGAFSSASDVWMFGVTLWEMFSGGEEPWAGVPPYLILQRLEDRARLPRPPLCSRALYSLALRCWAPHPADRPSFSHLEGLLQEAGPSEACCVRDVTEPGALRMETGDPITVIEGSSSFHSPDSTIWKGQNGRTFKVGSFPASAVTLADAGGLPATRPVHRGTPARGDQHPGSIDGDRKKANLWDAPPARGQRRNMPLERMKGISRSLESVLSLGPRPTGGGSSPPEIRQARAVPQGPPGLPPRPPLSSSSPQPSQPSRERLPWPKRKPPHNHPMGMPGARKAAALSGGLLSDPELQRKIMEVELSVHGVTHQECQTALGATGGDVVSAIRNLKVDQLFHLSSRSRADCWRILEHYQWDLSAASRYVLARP

[2] = biological target: Casein kinase I isoform gamma-1 (Homo sapiens) (UniProt Q9HCP0); experiment: Selectivity interaction (SelectScreen profiling (Invitrogen)) EUB0000607a CSNK1G1; conditions: at 2 µM
[3] = biological target: T2, Serine/threonine-protein kinase D2 (Homo sapiens) (UniProt Q9BZL6); conditions: at 10 µM
T2 sequence (whole entry): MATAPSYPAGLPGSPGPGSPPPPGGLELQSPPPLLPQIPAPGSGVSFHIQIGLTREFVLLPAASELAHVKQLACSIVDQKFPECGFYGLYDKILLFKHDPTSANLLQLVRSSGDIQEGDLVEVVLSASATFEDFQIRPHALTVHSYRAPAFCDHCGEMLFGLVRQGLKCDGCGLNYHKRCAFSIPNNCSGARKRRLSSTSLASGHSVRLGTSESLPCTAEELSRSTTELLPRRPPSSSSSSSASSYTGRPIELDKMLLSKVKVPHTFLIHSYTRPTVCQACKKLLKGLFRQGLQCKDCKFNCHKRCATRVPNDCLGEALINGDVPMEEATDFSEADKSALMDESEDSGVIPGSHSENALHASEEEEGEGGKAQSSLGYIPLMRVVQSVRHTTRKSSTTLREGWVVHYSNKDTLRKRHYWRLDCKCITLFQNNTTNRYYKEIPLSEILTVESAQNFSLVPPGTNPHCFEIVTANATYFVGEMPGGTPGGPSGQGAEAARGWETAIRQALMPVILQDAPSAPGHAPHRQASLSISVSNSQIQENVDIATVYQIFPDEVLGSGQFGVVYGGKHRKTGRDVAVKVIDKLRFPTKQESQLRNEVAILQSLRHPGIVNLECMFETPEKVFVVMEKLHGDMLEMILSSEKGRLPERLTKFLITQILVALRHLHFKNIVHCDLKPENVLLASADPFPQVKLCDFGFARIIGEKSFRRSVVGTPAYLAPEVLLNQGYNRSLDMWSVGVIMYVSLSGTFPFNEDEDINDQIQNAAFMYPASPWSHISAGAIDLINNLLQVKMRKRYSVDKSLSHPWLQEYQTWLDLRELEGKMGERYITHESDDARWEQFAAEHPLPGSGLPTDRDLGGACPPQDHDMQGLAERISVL

[4] = biological target: Proto-oncogene tyrosine-protein kinase receptor Ret (Homo sapiens, UniProt P07949); experiment: Selectivity interaction (Kinase panel (Invitrogen)) EUB0000639a RET; conditions: at 200 nM
[5] = biological target: T3, Bromodomain and PHD finger-containing protein 3 (Homo sapiens) (UniProt Q9ULD4); experiment: Selectivity interaction (Human bromodomain panel (DSF assay)) EUB0000233b BRPF3
T3 sequence (whole entry): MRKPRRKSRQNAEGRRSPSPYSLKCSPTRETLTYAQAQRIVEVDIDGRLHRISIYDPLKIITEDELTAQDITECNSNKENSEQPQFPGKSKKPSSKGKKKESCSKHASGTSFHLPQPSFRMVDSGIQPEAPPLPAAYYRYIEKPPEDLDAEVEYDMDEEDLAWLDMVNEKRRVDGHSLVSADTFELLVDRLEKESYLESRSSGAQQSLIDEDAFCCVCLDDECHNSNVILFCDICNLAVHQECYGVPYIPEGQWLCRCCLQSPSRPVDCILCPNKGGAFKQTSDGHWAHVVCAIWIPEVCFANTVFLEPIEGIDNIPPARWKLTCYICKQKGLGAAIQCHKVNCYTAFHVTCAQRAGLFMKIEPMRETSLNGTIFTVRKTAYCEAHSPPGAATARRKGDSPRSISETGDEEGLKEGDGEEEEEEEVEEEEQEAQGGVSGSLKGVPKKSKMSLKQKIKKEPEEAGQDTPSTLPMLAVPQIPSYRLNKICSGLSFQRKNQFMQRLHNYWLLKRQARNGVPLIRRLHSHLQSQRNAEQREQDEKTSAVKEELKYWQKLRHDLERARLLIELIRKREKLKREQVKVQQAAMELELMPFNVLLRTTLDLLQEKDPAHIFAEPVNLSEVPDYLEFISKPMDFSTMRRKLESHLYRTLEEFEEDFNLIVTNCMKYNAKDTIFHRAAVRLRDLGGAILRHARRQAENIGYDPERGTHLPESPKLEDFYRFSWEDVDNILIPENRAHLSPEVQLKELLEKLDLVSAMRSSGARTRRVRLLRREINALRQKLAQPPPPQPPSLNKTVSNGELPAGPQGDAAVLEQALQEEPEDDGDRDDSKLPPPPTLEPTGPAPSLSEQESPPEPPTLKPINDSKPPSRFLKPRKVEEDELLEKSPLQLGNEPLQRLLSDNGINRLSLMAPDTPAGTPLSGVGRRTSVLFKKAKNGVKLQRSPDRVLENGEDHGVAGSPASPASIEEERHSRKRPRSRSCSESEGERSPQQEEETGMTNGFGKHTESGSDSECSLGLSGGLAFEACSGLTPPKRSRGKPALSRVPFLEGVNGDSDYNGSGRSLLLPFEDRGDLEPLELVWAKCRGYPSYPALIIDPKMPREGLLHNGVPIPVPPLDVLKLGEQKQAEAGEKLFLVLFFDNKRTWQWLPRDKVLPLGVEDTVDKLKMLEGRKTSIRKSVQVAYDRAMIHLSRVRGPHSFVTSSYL

Casein kinase I isoform gamma-1 (Homo sapiens), sequence (Q9HCP0 whole entry, looked up, canonical isoform): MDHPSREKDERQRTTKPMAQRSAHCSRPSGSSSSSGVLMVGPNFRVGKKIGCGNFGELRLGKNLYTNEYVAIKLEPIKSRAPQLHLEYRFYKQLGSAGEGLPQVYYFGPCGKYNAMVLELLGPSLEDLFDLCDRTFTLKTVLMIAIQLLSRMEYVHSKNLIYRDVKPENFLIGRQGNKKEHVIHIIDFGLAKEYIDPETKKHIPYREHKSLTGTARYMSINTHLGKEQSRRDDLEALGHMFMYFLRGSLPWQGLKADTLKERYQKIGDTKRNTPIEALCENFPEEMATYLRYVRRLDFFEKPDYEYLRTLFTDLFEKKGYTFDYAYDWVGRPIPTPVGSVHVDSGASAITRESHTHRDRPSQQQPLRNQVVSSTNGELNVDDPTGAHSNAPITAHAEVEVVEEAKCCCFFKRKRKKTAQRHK
Proto-oncogene tyrosine-protein kinase receptor Ret, sequence (P07949 whole entry): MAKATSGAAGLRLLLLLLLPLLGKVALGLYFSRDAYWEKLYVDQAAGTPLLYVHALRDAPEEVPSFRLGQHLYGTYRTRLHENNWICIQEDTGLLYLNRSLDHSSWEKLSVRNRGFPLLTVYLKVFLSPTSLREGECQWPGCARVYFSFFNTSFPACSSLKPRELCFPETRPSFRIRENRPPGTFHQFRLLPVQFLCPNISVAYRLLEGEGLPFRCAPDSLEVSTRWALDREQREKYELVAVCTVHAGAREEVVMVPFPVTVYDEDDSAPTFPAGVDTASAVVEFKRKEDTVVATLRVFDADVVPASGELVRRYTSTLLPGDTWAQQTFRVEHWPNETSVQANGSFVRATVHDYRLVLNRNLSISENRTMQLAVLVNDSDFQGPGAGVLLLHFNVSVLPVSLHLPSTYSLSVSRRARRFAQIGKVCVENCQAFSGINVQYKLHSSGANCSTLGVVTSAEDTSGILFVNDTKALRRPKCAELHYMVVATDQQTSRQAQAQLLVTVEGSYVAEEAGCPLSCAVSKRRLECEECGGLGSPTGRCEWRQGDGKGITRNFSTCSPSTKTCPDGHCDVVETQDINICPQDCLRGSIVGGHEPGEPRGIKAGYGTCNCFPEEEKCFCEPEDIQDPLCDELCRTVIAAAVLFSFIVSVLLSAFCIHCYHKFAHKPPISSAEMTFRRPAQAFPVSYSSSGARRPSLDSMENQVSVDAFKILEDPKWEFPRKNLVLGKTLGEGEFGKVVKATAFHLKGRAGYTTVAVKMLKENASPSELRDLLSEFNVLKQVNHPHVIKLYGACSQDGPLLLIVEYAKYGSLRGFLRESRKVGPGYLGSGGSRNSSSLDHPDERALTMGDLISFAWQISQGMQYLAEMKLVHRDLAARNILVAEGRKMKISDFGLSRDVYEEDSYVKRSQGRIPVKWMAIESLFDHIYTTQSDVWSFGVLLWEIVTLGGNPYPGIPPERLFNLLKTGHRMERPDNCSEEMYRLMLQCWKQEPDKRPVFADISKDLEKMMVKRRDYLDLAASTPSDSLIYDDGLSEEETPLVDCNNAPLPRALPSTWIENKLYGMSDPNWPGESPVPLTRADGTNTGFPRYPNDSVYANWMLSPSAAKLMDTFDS

SMILES: CN(C)CCOc1ccc(-c2nc(-c3ccncc3)c(-c3ccc4c(c3)CC/C4=N\O)[nH]2)cc1
- % of control [1]: 100%

SMILES: CNC(=O)Nc1ccc(-c2nc(N3CC4CCC(C3)O4)c3cnn(C4CCC5(CC4)OCCO5)c3n2)cc1
- % of inhibition [2]: -2%

SMILES: Cc1cc([C@@H](C)Nc2ccccc2C(=O)O)c2nc(N3CCOCC3)cc(=O)n2c1 [AZD-6482]
- % of control [3]: 100%

- % of inhibition [4]: 58.6%
SMILES: CC[C@@H]1[C@H](F)C(=O)N[C@@H]1COc1nccc2cc(C(N)=O)c(OC)cc12 [ZIMLOVISERTIB]

- dTM [5]: < 2 K
SMILES: CN(C)CCCOc1ccc(-c2cc(NCCCn3cccn3)nc(S(C)(=O)=O)n2)cc1
